“Also recorded” adds a separate entry of the source.
Tests used:
Format in all cases: cell-based, human
[1] = system: stage 2 neural progenitors; test: HD-DoE another 12-factor model for stage 3 recipe (FIG. 24, 25, 30); conditions: for level of MSX1 in absence of the factor / level of SOX6 in absence of the factor: AZD3147, DBZ, PD0325901 and BMP7 set; for level of MSX1 in absence of the factor: 45 with all factors; for level of SOX6 in absence of the factor: 185 with all factors; for impact on expression of MSX1 / impact on expression of SOX6: dynamic profile, 12 effectors; for factor contribution: model optimized for SOX6, positive impact
Protocol: In another 12-factor model, additional factors including Activin A, Takinib (TAK inhibitor), FGF8b, AZD3147 (mTOR antagonist), MHY1485 (mTOR agonist), and Yhhu-3792 (Notch agonist) were tested. Some of the factors from previous model (BMP7, A 8301, LDN193189, PD0325901, MK2206 and DBZ) were also included.
(§1) To assess the impact of elimination of each validated factor identified in Example 5 for the stage 3 and stage 4 recipes, we used dynamic profile analysis and compared the expression level of genes of interest in absence of each finalized factor while others are present.
In another model, to determine the combinatorial effect of AZD3147 and DBZ on gene profile of cells in presence of other factors of final recipe, the expression levels of SOX6 and MSX1 were compared in the absence of each of the factors in the presence of PD0325901 and BMP7. These two compounds were the only final compounds that were included in inputs of this experimental model The results are shown in FIG. 30A and FIG. 30B. […] When DBZ was removed, the level of SOX6 and MSX1 both decreased to 140 and 35, respectively.

MB neural progenitors = test: HD-DoE 8-factor model, DBZ and AZD3147 (FIG. 26); conditions: dynamic profile
[2] = system: stage 1 neural stem cells; test: HD-DoE 12-factor experiment for stage 2 recipe (second model, FIG. 8-10, 13)
stage 3 immature neurons = test: HD-DoE 8-factor experiment for stage 4 recipe (FIG. 27, 28, 31)
Protocol: To further differentiate the cells to a mature neuronal identity, additional HD-DoE experiments were performed on the cells that were cultured in stage 1, stage 2 and stage 3 differentiation media. After 4 days, gene expression of cells in different combinatorial conditions were investigated. At this time, we focused on maximal expression of more mature dopaminergic genes such as NR4A2, PITX3 and TH (Tiklová et al. (2020) Nat Commun. 11:2434; Fiorenzano et al. (2021) Nat Commun., 12:7302). In one model, cells were treated with a combinatorial matrix with eight inputs including CHIR99021, BDNF, GDNF, Rosiglitazone, GW7647, DBZ and heparin.
as §1
In the stage 4 recipe, each of six finalized factors were excluded while other factors were present and the expression levels of NR4A2 and PITX3 were assessed compared to the presence of all factors.

[3] = system: stage 2 neural progenitors; test: HD-DoE 12-factor model for stage 3 recipe (FIG. 19-23, 29); conditions: model optimized for maximum expression of KCNJ6; positive regulators

## C[C@H]1COCCN1c1cc(C2(S(=O)(=O)C3CC3)CC2)nc(-c2ccc(NC(=S)NCCO)cc2)n1 [AZD 3147]
[1]
  level of MSX1 in absence of the factor: did not change
  level of SOX6 in absence of the factor: 150
  impact on expression of MSX1: did not show any significant impact
  impact on expression of SOX6: positive impact
  factor contribution: 20.2
MB neural progenitors
  impact on expression of CORIN, KCNJ6, SOX6 and MSX1: positive regulatory effect; also recorded: Positive impact
[2]; dynamic profile, 12 effectors
  impact on expression of FOXA2: did not reduce
  impact on expression of LMX1A: significant positive impact
[2]; model optimized for maximum expression of FOXA2, positive impact
  factor contribution: 10.9
[2]; stage 2 recipe, second experiment model
  level of FOXA2 in absence of the factor: almost no effect
[2]; stage 2 recipe, second experiment model, 4000 with all factors
  level of LMX1A in absence of the factor: 2000

## C[C@H](NC(=O)Cc1cc(F)cc(F)c1)C(=O)N[C@@H]1C(=O)N(C)c2ccccc2-c2ccccc21 [DBZ]
[1]
  level of MSX1 in absence of the factor: 35
  level of SOX6 in absence of the factor: 140
  impact on expression of MSX1: did not show any significant impact
  impact on expression of SOX6: positive impact
  factor contribution: 21.5
Stage 3 immature neurons; 8-factor model / dynamic profile
  impact on expression of NR4A2: positive regulatory impact
Stage 3 immature neurons; stage 4 recipe, other factors present, 40 with all factors
  expression level of PITX3 in absence of the factor: 30
Stage 3 immature neurons; stage 4 recipe, other factors present, 400 with all factors
  expression level of NR4A2 in absence of the factor: 200
MB neural progenitors
  impact on expression of CORIN, KCNJ6, SOX6 and MSX1: positive regulatory effect; also recorded: Positive impact
[3]
  factor contribution: low factor contributions
